Conditions: Liquid, Brillouin Light Scattering

CC(C)OC(C)C [diisopropyl ether]
Conditions	speed of sound [m/s]
302.38 K, 10000 kPa	1087.1
302.39 K, 4000 kPa	1011.9
302.48 K, 5500 kPa	1029.7
302.8 K, 8500 kPa	1052.4
302.91 K, 2500 kPa	1002.7
302.96 K, 1000 kPa	986.08
303.07 K, 7000 kPa	1037.8
307.45 K, 4000 kPa	987.23
307.61 K, 10000 kPa	1066.1
307.86 K, 5500 kPa	1009.4
307.87 K, 8500 kPa	1038.9
308 K, 1000 kPa	965.01
308.01 K, 7000 kPa	1020.5
308.28 K, 2500 kPa	974.68
312.8 K, 10000 kPa	1051
312.81 K, 8500 kPa	1010.4
312.88 K, 7000 kPa	995.2
312.91 K, 2500 kPa	961.97
312.92 K, 5500 kPa	979.14
313.05 K, 1000 kPa	943.07
313.14 K, 4000 kPa	969.4
317.72 K, 10000 kPa	1030.2
318.01 K, 5500 kPa	968.08
318.11 K, 1000 kPa	924.03
318.13 K, 8500 kPa	996.14
318.14 K, 2500 kPa	928.92
318.38 K, 7000 kPa	974.91
318.49 K, 4000 kPa	951.1
322.82 K, 10000 kPa	1007.1
323.15 K, 7000 kPa	960.56
323.3 K, 8500 kPa	972.88
323.31 K, 2500 kPa	912.04
323.5 K, 5500 kPa	943.6
323.62 K, 1000 kPa	901.5
323.71 K, 4000 kPa	924.8
327.56 K, 10000 kPa	994.72
327.75 K, 8500 kPa	964.89
327.97 K, 1000 kPa	881.1
328.08 K, 2500 kPa	887.66
328.1 K, 4000 kPa	901.06
328.13 K, 7000 kPa	936.62
328.17 K, 5500 kPa	923.15
332.93 K, 10000 kPa	963.31
332.94 K, 2500 kPa	869.98
333.01 K, 7000 kPa	920.95
333.08 K, 1000 kPa	855
333.25 K, 8500 kPa	943.92
333.31 K, 4000 kPa	888.08
333.57 K, 5500 kPa	897.12
337.63 K, 5500 kPa	882.64
337.69 K, 1000 kPa	846.25
337.75 K, 2500 kPa	857.76
337.85 K, 10000 kPa	946.87
337.89 K, 8500 kPa	917.48
337.93 K, 4000 kPa	867.64
338.11 K, 7000 kPa	896.43
343.33 K, 1000 kPa	819.28
343.57 K, 8500 kPa	904.65
343.67 K, 4000 kPa	845.53
343.79 K, 7000 kPa	878.38
343.82 K, 2500 kPa	827.84
343.88 K, 10000 kPa	923.89
343.97 K, 5500 kPa	864.56
347.31 K, 10000 kPa	915.04
347.41 K, 2500 kPa	807.03
347.59 K, 1000 kPa	802.59
347.69 K, 4000 kPa	832.86
347.76 K, 8500 kPa	887.44
347.81 K, 5500 kPa	843.4
347.81 K, 7000 kPa	867.06
352.94 K, 4000 kPa	804.7
353.38 K, 8500 kPa	862.02
353.45 K, 1000 kPa	775.82
353.59 K, 2500 kPa	792.6
353.6 K, 5500 kPa	819.82
353.71 K, 7000 kPa	845.61
353.81 K, 10000 kPa	893.76
358.06 K, 10000 kPa	870.54
358.52 K, 8500 kPa	846.91
358.55 K, 5500 kPa	807.15
358.76 K, 1000 kPa	755.17
358.93 K, 2500 kPa	760.2
358.96 K, 4000 kPa	782.98
359.03 K, 7000 kPa	821.85
362.67 K, 1000 kPa	737.96
362.78 K, 5500 kPa	786.13
362.9 K, 10000 kPa	855.96
362.95 K, 8500 kPa	828.91
363.08 K, 7000 kPa	809.07
363.21 K, 2500 kPa	747.41
363.41 K, 4000 kPa	767.15
367.56 K, 7000 kPa	793.16
367.57 K, 5500 kPa	769.09
367.78 K, 4000 kPa	751.56
367.82 K, 8500 kPa	809.14
367.96 K, 10000 kPa	835.29
368.03 K, 1000 kPa	715.17
368.26 K, 2500 kPa	726.3
372.68 K, 10000 kPa	816.27
372.8 K, 7000 kPa	771.64
373.15 K, 5500 kPa	753.88
373.21 K, 8500 kPa	788.43
373.29 K, 2500 kPa	712.12
373.37 K, 4000 kPa	726.56
373.57 K, 1000 kPa	697.04
377.41 K, 1000 kPa	679.66
377.54 K, 7000 kPa	749.64
377.85 K, 4000 kPa	712.4
377.85 K, 5500 kPa	728.98
377.97 K, 8500 kPa	770.84
378.05 K, 2500 kPa	690.57
378.3 K, 10000 kPa	803.55
382.72 K, 1000 kPa	654.9
382.77 K, 7000 kPa	734.01
382.78 K, 10000 kPa	787
382.83 K, 5500 kPa	710.48
382.88 K, 8500 kPa	754.35
383.06 K, 2500 kPa	665.89
383.26 K, 4000 kPa	691.26
387.78 K, 4000 kPa	674.22
388 K, 7000 kPa	713.08
388.09 K, 5500 kPa	694.59
388.3 K, 8500 kPa	735.65
388.31 K, 2500 kPa	653.57
388.68 K, 1000 kPa	634.3
388.86 K, 10000 kPa	760.66
392.26 K, 2500 kPa	635.1
392.28 K, 5500 kPa	675.48
392.33 K, 7000 kPa	701.13
392.5 K, 4000 kPa	658.79
392.65 K, 10000 kPa	747.04
392.79 K, 8500 kPa	722.68
393.19 K, 1000 kPa	615.78
397.81 K, 4000 kPa	632.66
397.95 K, 2500 kPa	613.31
398.22 K, 5500 kPa	653.67
398.25 K, 1000 kPa	589.15
398.32 K, 8500 kPa	702.44
398.37 K, 7000 kPa	674.76
398.9 K, 10000 kPa	728.83
402.67 K, 7000 kPa	662.53
402.77 K, 5500 kPa	638.47
402.88 K, 2500 kPa	590.27
403.23 K, 8500 kPa	683.98
403.4 K, 4000 kPa	612.03
403.45 K, 1000 kPa	570.56
403.45 K, 10000 kPa	709.11
407.64 K, 5500 kPa	623.08
407.75 K, 10000 kPa	693.65
408.1 K, 7000 kPa	642.44
408.23 K, 8500 kPa	667.12
408.31 K, 4000 kPa	592.12
408.37 K, 2500 kPa	571.15
408.65 K, 1000 kPa	544.68
412.43 K, 2500 kPa	550.12
412.43 K, 5500 kPa	606.9
412.66 K, 1000 kPa	530.21
412.7 K, 4000 kPa	576.58
412.83 K, 10000 kPa	681.56
412.95 K, 8500 kPa	646.94
413.28 K, 7000 kPa	622.07
418.22 K, 2500 kPa	532.67
418.42 K, 8500 kPa	627.35
418.54 K, 5500 kPa	583.39
418.59 K, 10000 kPa	659.95
418.87 K, 7000 kPa	603.43
418.91 K, 4000 kPa	554.62
419.01 K, 1000 kPa	502.48
423.21 K, 1000 kPa	482.17
423.5 K, 4000 kPa	536.96
423.62 K, 8500 kPa	613.79
423.75 K, 7000 kPa	590.42
423.79 K, 5500 kPa	567.31
423.9 K, 10000 kPa	640.34
424.09 K, 2500 kPa	502.49
427.41 K, 7000 kPa	578.56
427.66 K, 1000 kPa	460.04
427.92 K, 8500 kPa	597.25
428.03 K, 4000 kPa	520.63
428.26 K, 2500 kPa	490.5
428.45 K, 5500 kPa	546.98
428.53 K, 10000 kPa	625.16
432.35 K, 10000 kPa	618.58
432.63 K, 5500 kPa	529.89
432.77 K, 8500 kPa	581.79
432.83 K, 7000 kPa	558.11

Conditions	speed of sound [m/s]
303.08 K	986.38
318.27 K	915.66
333.62 K	852.5
347.96 K	790.74
362.87 K	731.21
378.14 K	662.26
393.15 K	593.47
402.97 K	552.35
412.75 K	514.15
422.75 K	469.11
432.74 K	426.77
